We go through ten compounds from patent EP3722296B1, “DIHYDRONAPHTHYRIDINES AND RELATED COMPOUNDS USEFUL AS KINASE INHIBITORS FOR THE TREATMENT OF PROLIFERATIVE DISEASES” (Deciphera Pharmaceuticals, LLC, priority 2012, dated 2013).

The target of one assay is c-KIT kinase (Homo sapiens, UniProt P10721). The assay can be described thus: c-KIT kinase Assay. Type of assay: biochemical. Also noted: cKIT residues T544-V976; GST (N); TEV cleavage site (internal); purchased deCODE Biostructures. The settings on record: enzymatic assay, ATP 200 µM; read-out: KIT (wt) IC50. The protocol:
In this assay, the oxidation of NADH (measured by decrease in absorbance at 340 nm) was continuously monitored spectrophotometrically. […] The absorption at 340 nm was monitored continuously for 2 hours at 30 °C on Synergy 2 (BioTeK). The reaction rate was calculated using the 0 to 1 h time frame. Percent inhibition was obtained by comparison of reaction rate with that of a control (i.e. with no test compound). IC50 values were calculated from a series of percent inhibition values determined at a range of inhibitor concentrations using software routines as implemented in the GraphPad Prism software package. The protein construct was prepared by deCODE Biostructures using procedures known in the art. The construct contains […] of cKit, an N-terminal tag, a GST-fusion sequence and a TEV cleavage site. [formula]

The next assay deals with T1, c-KIT T670I kinase (Homo sapiens, UniProt P10721, T670I).
T1 construct: The construct contains residues T544-V976 of cKit; GST (N); TEV cleavage site (internal); purchased deCODE Biostructures
T1 sequence (P10721 544-976 T670I): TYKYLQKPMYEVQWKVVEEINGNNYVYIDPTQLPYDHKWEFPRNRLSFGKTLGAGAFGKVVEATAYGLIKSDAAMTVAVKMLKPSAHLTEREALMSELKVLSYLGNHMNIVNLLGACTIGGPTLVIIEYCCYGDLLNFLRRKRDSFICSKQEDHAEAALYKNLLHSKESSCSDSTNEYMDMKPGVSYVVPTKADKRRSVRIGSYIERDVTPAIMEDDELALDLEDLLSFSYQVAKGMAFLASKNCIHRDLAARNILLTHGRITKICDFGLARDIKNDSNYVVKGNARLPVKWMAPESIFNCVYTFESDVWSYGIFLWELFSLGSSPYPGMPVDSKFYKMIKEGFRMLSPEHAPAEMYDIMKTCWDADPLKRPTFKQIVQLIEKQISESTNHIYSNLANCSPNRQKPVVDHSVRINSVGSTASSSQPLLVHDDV
The assay can be described thus: c-KIT T670I kinase assay. In kind it is biochemical. As to conditions: enzymatic assay. As for the experimental part: In this assay, the oxidation of NADH (measured by decrease in absorbance at 340 nm) was continuously monitored spectrophotometrically. […] The inhibition reaction was started by mixing serial diluted test compound with the above reaction mixture. The absorption at 340 nm was monitored continuously for 5 hours at 30 °C on Synergy 2 plate reader (BioTech). […] The protein construct was prepared by deCODE Biostructures using procedures known in the art. The construct contains […] of cKit, an N-terminal tag, a GST-fusion sequence and a TEV cleavage site. This construct is identical to Seq ID no. 1 except for the T670I mutation. [formula] [formula]

In another assay the target is T2, c-KIT V654A kinase (Homo sapiens, UniProt P10721, V654A).
T2 construct: residues T544-V976 with N-terminal GST fusion; purchased deCODE Biostructures
T2 sequence (P10721 544-976 V654A): as the sequence (P10721 544-976 T670I) above, with V111A, I127T counted along it
The assay can be described thus: c-KIT V654A Kinase Assay. Type of assay: biochemical. The settings on record: enzymatic assay, ATP 200 µM. The protocol: In this assay, the oxidation of NADH (measured by decrease in absorbance at 340 nm) was continuously monitored spectrophotometrically. […] The inhibition reaction was started by mixing serial diluted test compound with the above reaction mixture. The absorption at 340 nm was monitored continuously for 6 hours at 30 °C on Synergy 2 plate reader (BioTech).
(§1) The protein construct was prepared by deCODE Biostructures using procedures known in the art. The construct contains residues T544-V976 of cKit, an N-terminal tag, a GST-fusion sequence and a TEV cleavage site. This construct is identical to Seq ID no.

The next assay addresses T3, c-KIT D816V kinase (Homo sapiens, UniProt P10721, D816V).
T3 construct: residues T544-V976 with N-terminal GST fusion; purchased deCODE Biostructures
Nature of the assay: c-KIT D816V kinase Assay. Type of assay: biochemical. As to conditions: enzymatic assay, ATP 200 uM. As for the experimental part:
In this assay, the oxidation of NADH (measured by decrease in absorbance at 340 nm) was continuously monitored spectrophotometrically. […] The inhibition reaction was started by mixing serial diluted test compound with the above reaction mixture. The absorption at 340 nm was monitored continuously for 5 hours at 30 °C on Synergy 2 plate reader (BioTech).
as §1

The target in a further assay is T4, c-KIT D816H kinase (Homo sapiens, UniProt P10721, D816H).
T4 construct: The construct contains residues T544-V976 of cKit; GST (N); TEV cleavage site (internal); purchased deCODE Biostructures
T4 sequence (P10721 544-976 D816H): as the sequence (P10721 544-976 T670I) above, with I127T, D273H counted along it
Nature of the assay: c-KIT D816H Kinase Assay. In kind it is biochemical. As to conditions: enzymatic assay, ATP 200 µM. As for the experimental part:
In this assay, the oxidation of NADH (measured by decrease in absorbance at 340 nm) was continuously monitored spectrophotometrically. […] The inhibition reaction was started by mixing serial diluted test compound with the above reaction mixture. The absorption at 340 nm was monitored continuously for 6 hours at 30 °C on Synergy 2 plate reader (BioTech). […] The protein construct was prepared by deCODE Biostructures using procedures known in the art. The construct contains […] of cKit, an N-terminal tag, a GST-fusion sequence and a TEV cleavage site. This construct is identical to Seq ID no.

The test system of another assay is GIST T1 cells. Nature of the assay: GIST T1 Cell Proliferation Assay. Type of assay: cell-based. The settings on record: Homo sapiens, GISTT1, 72 h, 68 hours + 4 hours resazurin. As for the experimental part:
(§2) GIST48, GIST430, and GIST882 cells were obtained from J. Fletcher (Brigham and Women's Hospital, Boston, MA). GIST T1 cells were obtained from B. Rubin (Cleveland Clinic, Cleveland, OH) and Professor Takahiro Taguchi (Kochi Medical School, Nankoku, Kochi, Japan). Briefly, GIST48 and GIST 882 cells were grown in RPMI 1640 medium supplemented with 15% characterized fetal bovine serum (Invitrogen, Carlsbad, CA), 1 unit/mL penicillin G, 1 µg/ml streptomycin, and 0.29 mg/mL L-glutamine at 37 °C, 5% CO2, and 95% humidity. GIST430 cells were grown in Ham's F10 medium supplemented with 15% characterized fetal bovine serum (Invitrogen, Carlsbad, CA), 30 mg/L bovine pituitary extract (BD Biosciences, San Jose, CA), 0.5% Mito+ serum extender (BD Biosciences, San Jose, CA), 1 unit/mL penicillin G, 1 µg/ml streptomycin, and 0.29 mg/mL L-glutamine at 37 °C, 5%CO2, 95% humidity. GIST T1 cells were grown in DMEM medium supplemented with 10% characterized fetal bovine serum (Invitrogen, Carlsbad, CA), 1 unit/mL penicillin G, 1 µg/ml streptomycin, and 0.29 mg/mL L-glutamine at 37 °C, 5% CO2, and 95% humidity.
A serial dilution of test compound was dispensed into a 384-well black clear bottom plate (Corning, Corning, NY). One thousand two-hundred fifty cells were added per well in 50 µL complete growth medium. Plates were incubated for 68 hours at 37 °C, 5% CO2, 95% humidity. At the end of the incubation period 10 µL of a 440 µM solution of resazurin (Sigma, St. Louis, MO) in PBS was added to each well and incubated for an additional 4 hours at 37 °C, 5% CO2, 95% humidity. Plates were read on a Synergy2 reader (Biotek, Winooski, VT) using an excitation of 540 nm and an emission of 600 nm.

Another assay concerns Phospho-KIT (Tyr719). The assay can be described thus: GIST48 KIT Western Blot. As to conditions: GIST48 cells, 4 hours, serum-free medium; read-out: pKIT suppression by western blot analysi GIST48. Type of assay: cell-based. The protocol:
as §2, with “Briefly, GIST48 and GIST 882 cells were grown in RPMI 1640 medium supplemented with 15% characterized fetal bovine serum (Invitrogen, Carlsbad, CA), 1 unit/mL penicillin G, 1 µg/ml streptomycin, and 0.29 mg/mL L-glutamine at 37 °C, 5% CO2, and 95% humidity.” left out
Two hundred fifty thousand cells were added per well in a 24-well tissue-culture treated plate. […] Medium was aspirated, cells were washed with PBS, and serum-free RPMI1640 medium was added. […] Cells were washed with PBS, then lysed. Cell lysates were separated by SDS-PAGE and transferred to PVDF. Phospho-KIT (Tyr719) was detected using an antibody from Cell Signaling Technology (Beverly, MA), ECL Plus detection reagent (GE Healthcare, Piscataway, NJ) and a Molecular Devices Storm 840 phosphorimager in fluorescence mode. Blots were stripped and probed for total KIT using an antibody from Santa Cruz Biotech (Santa Cruz, CA). IC50 values were calculated using Prism software (Graphpad, San Diego, CA).
In general terms: Immunoblotting shows a protein as a band on a membrane.

Structures are written as SMILES.

Chain of c-KIT kinase (P10721 544-976): as the sequence (P10721 544-976 T670I) above, with I127T counted along it
T3 sequence (P10721 544-976 D816V): as the sequence (P10721 544-976 T670I) above, with I127T, D273V counted along it

Consider `CCn1c(=O)c(-c2cc(NC(=O)Nc3ccc(F)cc3)c(F)cc2Cl)cc2cnc(NCCOC)cc21` [Example 34, 1-(4-chloro-5-(1-ethyl-7-(2-methoxyethylamino)-2-oxo-1,2-dihydro-1,6-naphthyridin-3-yl)-2-fluorophenyl)-3-(4-fluorophenyl)urea], for which the IC50 on c-KIT kinase is < 0.01 µM; at c-KIT T670I kinase, 0.01 to 0.1 µM; on c-KIT V654A kinase it was 0.01 to 0.1 µM; at c-KIT D816V kinase, 0.01 to 0.1 µM; at c-KIT D816H kinase, 0.01 to 0.1 µM.

With `CCn1c(=O)c(-c2cc(NC(=O)Nc3ccccc3F)c(F)cc2Cl)cc2cnc(NCCOC)cc21` [Example 35, 1-(4-chloro-5-(1-ethyl-7-(2-methoxyethylamino)-2-oxo-1,2-dihydro-1,6-naphthyridin-3-yl)-2-fluorophenyl)-3-(2-fluorophenyl)urea], the IC50 on c-KIT kinase was < 0.01 µM; at c-KIT T670I kinase, 0.1 to 1 µM; at c-KIT V654A kinase it was 0.01 to 0.1 µM; at c-KIT D816V kinase it was 0.01 to 0.1 µM; at c-KIT D816H kinase, 0.01 to 0.1 µM.

Consider `CCn1c(=O)c(-c2cc(NC(=O)Nc3ccccc3)c(F)cc2C)cc2cnc(NCCOC)cc21` [Example 37, 1-(5-(1-ethyl-7-(2-methoxyethylamino)-2-oxo-1,2-dihydro-1,6-naphthyridin-3-yl)-2-fluoro-4-methylphenyl)-3-phenylurea], for which the IC50 was < 0.01 µM on c-KIT kinase; 0.1 to 1 µM on c-KIT T670I kinase; 0.01 to 0.1 µM on c-KIT V654A kinase; 0.01 to 0.1 µM on c-KIT D816V kinase; 0.01 to 0.1 µM on c-KIT D816H kinase.

Take `CCn1c(=O)c(-c2cc(NC(=O)Nc3ccc(F)c(CN4CCN(C)CC4)c3)c(F)cc2C)cc2cnc(NC)cc21` [Example 89, 1-(5-(1-ethyl-7-(methylamino)-2-oxo-1,2-dihydro-1,6-naphthyridin-3-yl)-2-fluoro-4-methylphenyl)-3-(4-fluoro-3-((4-methylpiperazin-1-yl)methyl)phenyl)urea]: the IC50 was in the range of 0.01 to 0.1 µM on c-KIT kinase; 0.01 to 0.1 µM on c-KIT T670I kinase; 0.1 to 1 µM on c-KIT V654A kinase; 0.1 to 1 µM at c-KIT D816V kinase; 0.01 to 0.1 µM at c-KIT D816H kinase.

Take `CCn1c(=O)c(-c2cc(NC(=O)Nc3cccc(C#N)c3)c(F)cc2Cl)cc2cnc(NC)cc21` [Example 91, 1-(4-chloro-5-(1-ethyl-7-(methylamino)-2-oxo-1,2-dihydro-1,6-naphthyridin-3-yl)-2-fluorophenyl)-3-(3-cyanophenyl)urea]: the IC50 was < 0.01 µM on c-KIT kinase; 0.01 to 0.1 µM at c-KIT T670I kinase; 0.01 to 0.1 µM at c-KIT V654A kinase; 0.01 to 0.1 µM at c-KIT D816V kinase; 0.01 to 0.1 µM on c-KIT D816H kinase.

In the case of `CCn1c(=O)c(-c2cc(NC(=O)Nc3ccc(F)c(CN4CCCC4)c3)c(F)cc2Cl)cc2cnc(NC)cc21` [Example 97, 1-(4-chloro-5-(1-ethyl-7-(methylamino)-2-oxo-1,2-dihydro-1,6-naphthyridin-3-yl)-2-fluorophenyl)-3-(4-fluoro-3-(pyrrolidin-1-ylmethyl)phenyl)urea], the IC50 in the assay on GIST T1 cells is < 0.01 µM.

As to `Cc1cc(F)c(NC(=O)Nc2ccccc2)cc1-c1cc2cnc(NC(=O)N3CCC3)cc2n(C(C)C)c1=O` [Example 109, N-(3-(4-fluoro-2-methyl-5-(3-phenylureido)phenyl)-1-isopropyl-2-oxo-1,2-dihydro-1,6-naphthyridin-7-yl)azetidine-1-carboxamide], the IC50 with Phospho-KIT (Tyr719) fell in the range of 0.01 to 0.1 µM.

For the compound `CCn1c(=O)c(-c2cc(NC(=O)Nc3ccccc3)c(F)cc2C)cc2cnc(NC(=O)N3CCC3)cc21` [Example 110, N-(1-ethyl-3-(4-fluoro-2-methyl-5-(3-phenylureido)phenyl)-2-oxo-1,2-dihydro-1,6-naphthyridin-7-yl)azetidine-1-carboxamide], the IC50 at c-KIT kinase was 0.01 to 0.1 µM; at c-KIT T670I kinase, 0.01 to 0.1 µM; on c-KIT V654A kinase, 0.01 to 0.1 µM; on c-KIT D816V kinase it was 0.01 to 0.1 µM; at c-KIT D816H kinase, 0.01 to 0.1 µM; in the assay on Phospho-KIT (Tyr719), < 0.01 µM.

Consider `CCn1c(=O)c(-c2cc(NC(=O)Nc3ccccc3)c(F)cc2F)cc2cnc(NC(=O)N(C)C)cc21` [Example 112, 3-(3-(2,4-difluoro-5-(3-phenylureido)phenyl)-1-ethyl-2-oxo-1,2-dihydro-1,6-naphthyridin-7-yl)-1,1-dimethylurea], for which the IC50 is < 0.01 µM at c-KIT kinase, < 0.01 µM at c-KIT T670I kinase, 0.01 to 0.1 µM at c-KIT D816V kinase and < 0.01 µM on c-KIT D816H kinase.

As to `CCn1c(=O)c(-c2cc(NC(=O)Nc3ccccc3)c(F)cc2C)cc2cnc(NC(=O)N3CC(N(C)C)C3)cc21` [Example 113, 3-(dimethylamino)-N-(1-ethyl-3-(4-fluoro-2-methyl-5-(3-phenylureido)phenyl)-2-oxo-1,2-dihydro-1,6-naphthyridin-7-yl)azetidine-1-carboxamide], the IC50 on c-KIT kinase is 0.01 to 0.1 µM; at c-KIT T670I kinase, 0.01 to 0.1 µM; on c-KIT V654A kinase it was 0.1 to 1 µM; on c-KIT D816V kinase, 0.01 to 0.1 µM; on c-KIT D816H kinase it was < 0.01 µM.
